For 19 compounds, MIC results are on record in US11180504B2 (ORCHID PHARMA LTD., priority 2016, dated 2021).

Usually MIC stands for the lowest concentration that inhibits growth of the organism.

≈ marks a conversion by molar mass, not a printed value. A value given as a limit tells only on which side of the number the result lay.

Experiment [1] concerns carbapenem sensitive Pseudomonas aeruginosa. Description: MIC by broth micro-dilution (CLSI), carbapenem sensitive P. aeruginosa. Particulars: Pseudomonas aeruginosa, ATCC27853, Meropenem susceptible P. aeruginosa ATCC27853; read-out: MIC. It counts as cell-based. (Broth dilution looks for growth in wells or tubes with falling amounts of substance.)
Experiment [2] relates to carbapenemase producing K. pneumoniae. Description: MIC by broth micro-dilution (CLSI), carbapenemase producing K. pneumoniae. It counts as cell-based, Klebsiella pneumoniae. As to conditions: Klebsiella pneumoniae, ATCCBAA1705, KPC-2 K. pneumoniae ATCC BAA-1705; read-out: MIC.
Experiment [3] deals with carbapenem sensitive Escherichia coli. Nature of the experiment: MIC by broth micro-dilution (CLSI), carbapenem sensitive E. coli. As to conditions: Escherichia coli, ATCC25922, ESBL −ve E. coli ATCC25922; read-out: MIC. It counts as cell-based.
Experiment [4] relates to methicillin-sensitive Staphylococcus aureus. Description: MIC by broth micro-dilution (CLSI), methicillin-sensitive S. aureus. It counts as cell-based. As to conditions: Staphylococcus aureus, ATCC 29213 / MSSA, MSSA S. aureus ATCC29213; read-out: MIC.
Experiment [5] concerns extended spectrum β lactamase (ESBL) SHV18 producing Klebsiella pneumoniae. Nature of the experiment: MIC by broth micro-dilution (CLSI), ESBL SHV18 producing K. pneumoniae. It counts as cell-based. As to conditions: Klebsiella pneumoniae, ATCC700603, 22 h, ESBL +ve (SHV-18) K. pneumoniae ATCC700603; read-out: MIC.

For `CCOC(=O)N[C@H](C)[C@H]1C(=O)N2C(C(=O)O)=C(S[C@@H]3CN[C@H](C(=O)N(C)C)C3)[C@H](C)[C@H]12` [Example 15], the MIC turned out to be 128 µg/mL (≈ 282 µM) in experiment [1]; 16 µg/mL (≈ 35.2 µM) in experiment [2]; 1 µg/mL (≈ 2.2 µM) in experiment [3]; 2 µg/mL (≈ 4.4 µM) in experiment [4]; 16 µg/mL (≈ 35.2 µM) in experiment [5].

Take `CNCC(=O)N[C@H](C)[C@H]1C(=O)N2C(C(=O)O)=C(S[C@@H]3CN[C@H](C(=O)N4CC[C@H](NC=N)C4)C3)[C@H](C)[C@H]12` [Example 199]: the minimum inhibitory concentration (MIC) in experiment [1] was 4 µg/mL (≈ 7.67 µM); in experiment [2] it was 2 µg/mL (≈ 3.83 µM); in experiment [3], 1 µg/mL (≈ 1.92 µM); in experiment [4], 32 µg/mL (≈ 61.3 µM); in experiment [5], 4 µg/mL (≈ 7.67 µM).

Regarding `C[C@@H](NC(=O)C(=O)N(C)C)[C@H]1C(=O)N2C(C(=O)O)=C(S[C@@H]3CN[C@H](C(=O)N(C)C)C3)[C@H](C)[C@H]12` [Example 66], the MIC was above 128 µg/mL in experiment [1]; 4 to 8 µg/mL (≈ 8.31 to 16.6 µM) in experiment [2]; 2 µg/mL (≈ 4.15 µM) in experiment [3]; 8 µg/mL (≈ 16.6 µM) in experiment [4]; 8 µg/mL (≈ 16.6 µM) in experiment [5].

`C[C@@H](NS(C)(=O)=O)[C@H]1C(=O)N2C(C(=O)O)=C(S[C@@H]3CN[C@H](CNS(N)(=O)=O)C3)[C@H](C)[C@H]12` [Example 7]: the MIC in experiment [1] is 32 to 64 µg/mL (≈ 64.3 to 129 µM); in experiment [2] it was 2 to 4 µg/mL (≈ 4.02 to 8.04 µM); in experiment [3], 0.5 µg/mL (≈ 1 µM); in experiment [4], 2 to 8 µg/mL (≈ 4.02 to 16.1 µM); in experiment [5], 2 to 4 µg/mL (≈ 4.02 to 8.04 µM).

As to `C[C@@H](NC(=O)C(F)F)[C@H]1C(=O)N2C(C(=O)O)=C(S[C@@H]3CN[C@H](CNS(N)(=O)=O)C3)[C@H](C)[C@H]12` [Example 38], the MIC in experiment [1] was 32 to 64 µg/mL (≈ 64.3 to 129 µM); in experiment [2], 2 to 4 µg/mL (≈ 4.02 to 8.04 µM); in experiment [3] it was 1 µg/mL (≈ 2.01 µM); in experiment [4], 0.25 µg/mL (≈ 0.502 µM); in experiment [5], 1 µg/mL (≈ 2.01 µM).

With `CCOC(=O)CN[C@H](C)[C@H]1C(=O)N2C(C(=O)O)=C(S[C@@H]3CN[C@H](C(=O)N(C)C)C3)[C@H](C)[C@H]12` [Example 98], the MIC in experiment [1] was above 128 µg/mL; in experiment [2], 32 µg/mL (≈ 68.3 µM); in experiment [3], 8 µg/mL (≈ 17.1 µM); in experiment [4], 32 µg/mL (≈ 68.3 µM); in experiment [5] it was 32 µg/mL (≈ 68.3 µM).

As for `C[C@@H](NC(=O)C(F)F)[C@H]1C(=O)N2C(C(=O)O)=C(S[C@@H]3CN[C@H](CN4CCNCC4)C3)[C@H](C)[C@H]12` [Example 145], the MIC is 32 µg/mL (≈ 65.6 µM) in experiment [1]; 8 µg/mL (≈ 16.4 µM) in experiment [2]; 2 µg/mL (≈ 4.1 µM) in experiment [3]; 0.5 µg/mL (≈ 1.03 µM) in experiment [4]; 8 to 16 µg/mL (≈ 16.4 to 32.8 µM) in experiment [5].

Consider `C[C@@H](NC(=O)CN(C)C)[C@H]1C(=O)N2C(C(=O)O)=C(S[C@@H]3CN[C@H](C(=O)N4CC[C@@H](N)C4)C3)[C@H](C)[C@H]12` [Example 180], for which the MIC stood at 16 µg/mL (≈ 31.5 µM) in experiment [1]; 32 µg/mL (≈ 62.9 µM) in experiment [2]; 4 µg/mL (≈ 7.86 µM) in experiment [3]; 128 µg/mL (≈ 252 µM) in experiment [4]; 32 µg/mL (≈ 62.9 µM) in experiment [5].

`C[C@@H](NC(=O)CN)[C@H]1C(=O)N2C(C(=O)O)=C(S[C@@H]3CN[C@H](C(=O)N(C)C)C3)[C@H](C)[C@H]12` [Example 44]: the MIC was 16 µg/mL (≈ 36.4 µM) in experiment [1]; 8 µg/mL (≈ 18.2 µM) in experiment [2]; 4 µg/mL (≈ 9.1 µM) in experiment [3]; 32 µg/mL (≈ 72.8 µM) in experiment [4]; 4 µg/mL (≈ 9.1 µM) in experiment [5].

With `C[C@@H]1CN(C(=O)[C@@H]2C[C@H](SC3=C(C(=O)O)N4C(=O)[C@H]([C@@H](C)NC(=O)C(F)F)[C@H]4[C@H]3C)CN2)CCN1` [Example 135], the MIC is 8 µg/mL (≈ 15.5 µM) in experiment [1]; 4 µg/mL (≈ 7.76 µM) in experiment [2]; 1 µg/mL (≈ 1.94 µM) in experiment [3]; 2 µg/mL (≈ 3.88 µM) in experiment [4]; 4 µg/mL (≈ 7.76 µM) in experiment [5].

With `CNCC(=O)N[C@H](C)[C@H]1C(=O)N2C(C(=O)O)=C(S[C@@H]3CN[C@H](C(=O)N4CCC(N)CC4)C3)[C@H](C)[C@H]12` [Example 190], the MIC in experiment [1] was 4 µg/mL (≈ 7.86 µM); in experiment [2], 4 µg/mL (≈ 7.86 µM); in experiment [3], 2 µg/mL (≈ 3.93 µM); in experiment [4] it was 64 µg/mL (≈ 126 µM); in experiment [5], 16 µg/mL (≈ 31.5 µM).

Consider `C[C@@H](NC(=O)CNC1CC1)[C@H]1C(=O)N2C(C(=O)O)=C(S[C@@H]3CN[C@H](C(=O)N4CC[C@@H](N)C4)C3)[C@H](C)[C@H]12` [Example 197], for which the MIC in experiment [1] was 32 µg/mL (≈ 61.5 µM); in experiment [2] it was 16 µg/mL (≈ 30.7 µM); in experiment [3] it was 4 µg/mL (≈ 7.68 µM); in experiment [4] it was 16 µg/mL (≈ 30.7 µM); in experiment [5], 16 µg/mL (≈ 30.7 µM).

As to `C[C@@H](NC(=O)[C@H]1CCCO1)[C@H]1C(=O)N2C(C(=O)O)=C(S[C@@H]3CN[C@H](C(=O)N(C)C)C3)[C@H](C)[C@H]12` [Example 58], the MIC was above 128 µg/mL in experiment [1]; above 128 µg/mL in experiment [2]; 16 µg/mL (≈ 33.3 µM) in experiment [3]; 32 µg/mL (≈ 66.6 µM) in experiment [4]; above 128 µg/mL in experiment [5].

In the case of `C[C@@H](NC(=O)C(F)F)[C@H]1C(=O)N2C(C(=O)O)=C(S[C@@H]3CN[C@H](C(=O)N4C[C@@H](O)[C@@H](N)C4)C3)[C@H](C)[C@H]12` [Example 213], the MIC in experiment [1] stood at 8 µg/mL (≈ 15.5 µM); in experiment [2], 4 µg/mL (≈ 7.73 µM); in experiment [3] it was 0.5 µg/mL (≈ 0.966 µM); in experiment [4], 1 µg/mL (≈ 1.93 µM); in experiment [5], 2 µg/mL (≈ 3.86 µM).

As for `C[C@@H](NC(=O)C(F)F)[C@H]1C(=O)N2C(C(=O)O)=C(S[C@@H]3CN[C@H](C(=O)N4CCNCC4)C3)[C@H](C)[C@H]12` [Example 120], the MIC in experiment [1] stood at 4 µg/mL (≈ 7.98 µM); in experiment [2], 4 µg/mL (≈ 7.98 µM); in experiment [3], 0.5 µg/mL (≈ 0.997 µM); in experiment [4] it was 2 µg/mL (≈ 3.99 µM); in experiment [5], 4 µg/mL (≈ 7.98 µM).

Turning to `C[C@@H](NS(C)(=O)=O)[C@H]1C(=O)N2C(C(=O)O)=C(S[C@@H]3CN[C@H](C(=O)N4CCC(O)CC4)C3)[C@H](C)[C@H]12` [Example 24], the minimal inhibitory concentration (MIC) in experiment [1] is 32 to 64 µg/mL (≈ 61.9 to 124 µM); in experiment [2] it was 4 µg/mL (≈ 7.74 µM); in experiment [3], 0.5 µg/mL (≈ 0.968 µM); in experiment [4], 16 µg/mL (≈ 31 µM); in experiment [5] it was 1 µg/mL (≈ 1.94 µM).

Consider `C[C@@H](NS(C)(=O)=O)[C@H]1C(=O)N2C(C(=O)O)=C(S[C@@H]3CN[C@H](C(=O)N4CC[C@@H](NS(N)(=O)=O)C4)C3)[C@H](C)[C@H]12` [Example 203], for which the MIC is 128 µg/mL (≈ 220 µM) in experiment [1]; 4 µg/mL (≈ 6.89 µM) in experiment [2]; 0.5 µg/mL (≈ 0.861 µM) in experiment [3]; 16 µg/mL (≈ 27.6 µM) in experiment [4]; 1 µg/mL (≈ 1.72 µM) in experiment [5].

On to `COC(=S)N[C@H](C)[C@H]1C(=O)N2C(C(=O)O)=C(S[C@@H]3CN[C@H](C(=O)N(C)C)C3)[C@H](C)[C@H]12` [Example 36], for which the MIC in experiment [1] is 128 µg/mL (≈ 280 µM); in experiment [2], 16 µg/mL (≈ 35 µM); in experiment [3] it was 2 µg/mL (≈ 4.38 µM); in experiment [4] it was 1 µg/mL (≈ 2.19 µM); in experiment [5], 16 µg/mL (≈ 35 µM).

Consider `C[C@@H](NC(=O)c1ccccc1-n1cnnn1)[C@H]1C(=O)N2C(C(=O)O)=C(S[C@@H]3CN[C@H](C(=O)N4CC[C@@H](N)C4)C3)[C@H](C)[C@H]12` [Example 374, (4R,5S,6R)-6-((R)-1-(2-(1H-tetrazol-1-yl)benzamido)ethyl)-3-((3S,5S)-5-((R)-3-aminopyrrolidine-1-carbonyl)pyrrolidin-3-ylthio)-4-methyl-7-oxo-1-azabicyclo[3.2.0]hept-2-ene-2-carboxylic acid], for which the MIC in experiment [1] was above 128 µg/mL; in experiment [2] it was above 128 µg/mL; in experiment [3], 32 µg/mL (≈ 53.7 µM); in experiment [4], 8 µg/mL (≈ 13.4 µM).
